Measured values as given in patent publication US20260335397A1, “TREATMENT OF GEOGRAPHIC ATROPHY” (Apellis Pharmaceuticals, Inc., priority 2022, published 2026).

Key:
Format in all cases: in vivo, human
[1] = test system: geographic atrophy (GA) secondary to age-related macular degeneration (AMD); test: Post-hoc analysis of time to foveal light insensitivity, 4 central points of MAIA grid, OAKS study
Procedure: This Example describes a post-hoc analysis of results from the OAKS study described in Example 1 that was performed in order to assess the effect of pegcetacoplan monthly (PM) or every other month (PEOM) vs sham treatment in delaying occurrence of foveal insensitivity measured by the 4 most centrally located stimulus points of the MAcular Integrity Assessment (MAIA) grid. Absolute scotomatous points of −1 dB were considered present when a reaction was not evoked by the brightest possible light stimulus.
Light insensitivity was defined as absence of response to −1 dB at the stimulus point. For the time-to-event analysis, a foveal light insensitivity event was defined as the first light insensitivity (−1 dB) occurring at all 4 central stimuli. Events were measured at the exact date of a patient visit and depicted via Kaplan-Meier plots. A Cox proportional hazards model was applied factoring treatment, choroidal neovascularisation in the fellow eye, baseline GA lesion area, and baseline number of central 4 scotomatous points (categorical). Hazard ratios (HRs) of PM and PEOM were estimated.

[2] = test system: geographic atrophy (GA) secondary to age-related macular degeneration (AMD); test: Post hoc microperimetry perilesional analysis, OAKS study; settings: 24 months
Procedure: LS means estimated from MMRM analysis. […] Perilesional area defined as −250 μm inside baseline atrophy border to +250 μm outside atrophy border. dB=decibel; LS=least square; M=month; mITT=modified intent-to-treat; MMRM=mixed-effects model for repeated measures; PEOM=pegcetacoplan every other month; PM=pegcetacoplan monthly; SE=standard error.
A post hoc microperimetry perilesional analysis was performed on patients in the OAKS study to assess whether pegcetacoplan preservation of retinal tissue was reflected in preserved photoreceptor function in retina near GA lesion borders at baseline. Geographic atrophy lesion borders grow at approximately 100-150 microns per year. An assessment was performed of visual function of cells within 250 microns on either side of the lesion border, which are at the highest risk of permanently losing visual function as lesions expand. Reduction of retinal sensitivity as measured by microperimetry reflects loss of function.
Perilesional area (area within 250 microns of each side of GA lesion border) was created on fundus autofluorescence for each patient, and microperimetry endpoints were assessed within this region (68 spots on grid). In this analysis, approximately 21-22 points (out of 68 total—about one-third) qualified as “peri-lesional” using the 500 micron zone definition (250 inside and 250 outside of GA lesion border). A representative image is depicted as FIG. 5. […] Patients in both monthly (0.564 dB; p=0.0650) and every-other-month (EOM) (0.707 dB; p=0.0202) pegcetacoplan treatment groups lost less retinal sensitivity compared to the sham group over 24 months with increasing effects over time. Scotomatous points measure areas of the retina that have lost all light sensitivity and therefore are no longer functioning. Patients in both monthly (−0.680 points; p=0.1444) and EOM (−1.138 points; p=0.0140) pegcetacoplan treatment groups had fewer new scotomatous points compared to sham over 24 months with increasing effects over time.

[3] = test system: geographic atrophy (GA) secondary to age-related macular degeneration (AMD); test: Post-hoc analysis of BCVA and VFQ-25 by lesion distance from foveal center, OAKS and DERBY; settings: lesions ≥250 μm from foveal center, 24 months
Procedure: This Example describes a post-hoc analysis of results from the OAKS and DERBY studies described in Example 1. Functional data by lesion distance from foveal center were assessed over 24 months.
In the patient subgroup having lesions ≥250 μm away from the foveal center, pegcetacoplan slowed vision loss and improved quality of life in patients. […] This subgroup included patients in the mITT sample with non-missing baseline measurements of RPE central 3 mm occupancy (C30) in regions 1-5 and lesion distance from fovea center. Mean changes were calculated among patients with BCVA measurements at each timepoint and thus samples varied across outcomes shown with no imputation for missing data. Adjusted differences from bootstrapped inverse probability weighted regressions controlling for baseline C30 in regions 1-5, study and fellow eye GA characteristics, study eye visual acuity, and patient characteristics.
This subgroup included patients in the mITT sample with non-missing baseline measurements of RPE central 3 mm occupancy (C3O) in regions 1-5 and lesion distance from fovea center. Mean changes were calculated among patients with BCVA measurements at each timepoint and thus samples varied across outcomes shown with no imputation for missing data. […]

Poly(oxy-1,2-ethanediyl), α-hydro-ω-hydroxy-, 15,15′-diester with N-acetyl-L-isoleucyl-L-cysteinyl-L-valyl-1-methyl-L-tryptophyl-L-glutaminyl-L-α-aspartyl-L-tryptophylglycyl-L-alanyl-L-histidyl-L-arginyl-L-cysteinyl-L-threonyl-2-[2-(2-aminoethoxy)ethoxy]acetyl-N^6-carboxy-L-lysinamide cyclic (2->12)-(disulfide) [pegcetacoplan]
HR, occurrence of foveal light insensitivity vs sham ([1]; PEOM, 95% CI: 0.45, 0.92, p=0.0164): 0.64 | Conversion of all 4 central points to scotoma in the study eye, patients ([1]; PEOM, n=152, 24 months): 59 patients | Conversion of all 4 central points to scotoma in the study eye, percent of patients ([1]; PEOM, n=152, 24 months): 38.8% | onset of foveal light insensitivity / loss of foveal light sensitivity ([1]; PM and PEOM, twenty-four-month data): Meaningful delays in loss of foveal light sensitivity | HR, occurrence of foveal light insensitivity vs sham ([1]; PM, 95% CI: 0.46, 0.96, p=0.0282): 0.66 | Conversion of all 4 central points to scotoma in the study eye, patients ([1]; PM, n=155, 24 months): 54 patients | Conversion of all 4 central points to scotoma in the study eye, percent of patients ([1]; PM, n=155, 24 months): 34.8% | microperimetry measures, perilesional ([2]; all p-values nominal): positive trends in microperimetry measures | new scotomatous points (perilesional) compared to sham ([2]; EOM, p=0.0140 (nominal)): −1.138 points | less loss of retinal sensitivity (perilesional mean threshold sensitivity) compared to sham ([2]; every-other-month (EOM), p=0.0202 (nominal)): 0.707 dB | less loss of retinal sensitivity (perilesional mean threshold sensitivity) compared to sham ([2]; monthly, p=0.0650 (nominal)): 0.564 dB | new scotomatous points (perilesional) compared to sham ([2]; monthly, p=0.1444 (nominal)): −0.680 points | quality of life assessed by VFQ-25, better relative to sham [3]: over 4 points | BCVA change from baseline, relative to sham ([3]; monthly and every other month combined, baseline BCVA 73 (sham 75)): less of a BCVA change from baseline at 24 months
